{"source": "paper PMC8772704", "about": "“Quantification of Fosfomycin in Combination with Nine Antibiotics in Human Plasma and Cation-Adjusted Mueller-Hinton II Broth via LCMS” (Antibiotics, 2022)", "key": {"[1]": {"test": "32-day stability of stock solutions stored at −80 °C", "format": "physicochemical", "conditions": "stock solution stored at -80 °C; peak area Day 32 vs Day 1", "method": "Stability of stock solutions\nAll stock solutions of antibiotics and their corresponding stable-isotope variants were measured prior to cold storage at -80 °C and tested at 32 days later.\nStability was determined by comparing the peak area of each drug between its Day 1 and Day 32 measurement. Acceptable criteria for stability was met if the […]"}, "[2]": {"test": "Autosampler stability at 4 °C of extracted antibiotic-spiked plasma/CAMHB samples", "conditions": "for Mean accuracy (%), Table S8 / Mean accuracy (%), Table S10: CAMHB extracted samples; for Mean accuracy (%), Table S8 / Mean accuracy (%), Table S7: 7 h autosampler 4 °C; for Mean accuracy (%), Table S10 / Mean accuracy (%), Table S9: 15 h autosampler 4 °C; for Mean accuracy (%), Table S7 / Mean accuracy (%), Table S9: plasma extracted samples", "procedure": "(§1) The stability of fosfomycin in combination with other antibiotics in plasma/CAMHB was evaluated under various operational conditions. Spiked plasma/CAMHB samples were evaluated at 7 h and 15 h in the autosampler at 4 °C. Long-term stability was evaluated up to 4 weeks of antibiotic-spiked plasma/CAMHB samples at LQC, MQC, and HQC concentrations stored at −30 °C and −80 °C."}, "[3]": {"test": "Long-term storage stability of antibiotics in combination with fosfomycin spiked in plasma/CAMHB (−30 °C, −80 °C)", "format": "physicochemical", "conditions": "combination with fosfomycin; for Mean accuracy (%), Table S15 / Mean accuracy (%), Table S17 / Mean accuracy (%), Table S16 / Mean accuracy (%), Table S18: CAMHB; for Mean accuracy (%), Table S15 / Mean accuracy (%), Table S11: 2 weeks at -30 °C; for Mean accuracy (%), Table S17 / Mean accuracy (%), Table S13: 2 weeks at -80 °C; for Mean accuracy (%), Table S16 / Mean accuracy (%), Table S12: 4 weeks at -30 °C; for Mean accuracy (%), Table S18 / Mean accuracy (%), Table S14: 4 weeks at -80 °C; for Mean accuracy (%), Table S11 / Mean accuracy (%), Table S13 / Mean accuracy (%), Table S12 / Mean accuracy (%), Table S14: plasma", "procedure": "as §1"}, "[4]": {"test": "Plasma concentrations in four patients on fosfomycin-based combination therapy (pilot clinical feasibility study, LCMS/MS)", "conditions": "Patient 001; piperacillin/tazobactam 4.5 g every 6 h as a 1-h infusion", "method": "For 20 µL of plasma/CAMHB sample, 20 µL of water and 20 µL of stable-isotope as internal standard (IS) were added and vortexed. 180 µL of acetonitrile was added for protein precipitation and subsequently removed by centrifugation (12,700 rpm for 10 min at 25 °C). Finally, 15 µL of the supernatant was diluted with 225 µL formic acid in water (0.1% v/v), and 10 µL was injected for LCMS/MS analysis. For the calibration curve and QCs, 20 µL of the corresponding antibiotic standard working solution was added instead of water.\nSamples were analyzed using a Nexera X2 LCMS 8060 system (Shimadzu, Kyoto, Japan). […] Electrospray ionization employing positive and negative ion mode with multiple reaction monitoring was used for analyte quantification (Table S1). Data were acquired and analyzed using Shimadzu LabSolutions (Version 5.97).\nThe assay method described in this paper has been applied to a pilot clinical feasibility study to evaluate the proportion of patients with sub-optimal β-lactam levels and the need for dose adjustments in infected patients with unpredictable pharmacokinetics. We described a case series of four patients where they received in vitro guided antibiotic combination therapy using a fosfomycin-based combination regimen to treat a carbapenem-resistant Gram-negative bacteria infection. These four patients were recruited into the BLAST-2 study as the combination regimen contains a β-lactam antibiotic. In this case series, two were undergoing intermittent hemodialysis, and two patients had normal renal function. In the two patients on hemodialysis, they were on a dosing regimen of 8 g of fosfomycin on dialysis days (3 g at least 4 h before dialysis session and 5 g after completion of dialysis). The remaining two patients received 8 g of fosfomycin given every 8 h as a prolonged infusion.\nBlood samples (2–3 mL from an indwelling catheter) were collected four times over a dosing interval of the β-lactam dosing regimen and centrifuged (10 min at 3000 rpm) (Eppendorf 5425R). The resultant plasma was stored (within 15 min of collection) at −80 °C until assay."}}, "data": [{"smiles": "C[C@]1(Cn2ccnn2)[C@H](C(=O)O)N2C(=O)C[C@H]2S1(=O)=O", "note": "[Tazobactam, tazobactam]", "values": [{"measurement": "32 Day Stability (%)", "setting": "[1]", "value": 93.04, "unit": "%"}, {"measurement": "Mean accuracy (%), Table S8", "setting": "[2]; HQC (nominal as E15)", "value": 109.6, "unit": "%"}, {"measurement": "Mean accuracy (%), Table S8", "setting": "[2]; LQC (nominal as E13)", "value": 109.4, "unit": "%"}, {"measurement": "Mean accuracy (%), Table S8", "setting": "[2]; MQC (nominal as E14)", "value": 107.5, "unit": "%"}, {"measurement": "Mean accuracy (%), Table S10", "setting": "[2]; HQC (nominal as E15)", "value": 111.6, "unit": "%"}, {"measurement": "Mean accuracy (%), Table S10", "setting": "[2]; LQC (nominal as E13)", "value": 112.3, "unit": "%"}, {"measurement": "Mean accuracy (%), Table S10", "setting": "[2]; MQC (nominal as E14)", "value": 107.7, "unit": "%"}, {"measurement": "Mean accuracy (%), Table S7", "setting": "[2]; HQC: nominal mg/L CAZ 150, FEP 200, PIP 250, ATM 300, MEM 200, DOR 175, LVX 30, CEFT 250, TZB 87.5, TGC 20, AVI 30, FOF 1000", "value": 111.3, "unit": "%"}, {"measurement": "Mean accuracy (%), Table S7", "setting": "[2]; LQC: nominal 1 mg/L (levofloxacin, avibactam 0.5; fosfomycin 10)", "value": 113.6, "unit": "%"}, {"measurement": "Mean accuracy (%), Table S7", "setting": "[2]; MQC: nominal mg/L CAZ 75, FEP 100, PIP 150, ATM 150, MEM 100, DOR 87.5, LVX 15, CEFT 125, TZB 43.75, TGC 10, AVI 15, FOF 500", "value": 104.1, "unit": "%"}, {"measurement": "Mean accuracy (%), Table S9", "setting": "[2]; HQC (nominal as E15)", "value": 107.9, "unit": "%"}, {"measurement": "Mean accuracy (%), Table S9", "setting": "[2]; LQC (nominal as E13)", "value": 107.0, "unit": "%"}, {"measurement": "Mean accuracy (%), Table S9", "setting": "[2]; MQC (nominal as E14)", "value": 98.1, "unit": "%"}, {"measurement": "Mean accuracy (%), Table S15", "setting": "[3]; HQC (nominal as E15)", "value": 96.9, "unit": "%"}, {"measurement": "Mean accuracy (%), Table S15", "setting": "[3]; LQC (nominal as E13)", "value": 93.8, "unit": "%"}, {"measurement": "Mean accuracy (%), Table S15", "setting": "[3]; MQC (nominal as E14)", "value": 90.4, "unit": "%"}, {"measurement": "Mean accuracy (%), Table S17", "setting": "[3]; HQC (nominal as E15)", "value": 108.9, "unit": "%"}, {"measurement": "Mean accuracy (%), Table S17", "setting": "[3]; LQC (nominal as E13)", "value": 103.8, "unit": "%"}, {"measurement": "Mean accuracy (%), Table S17", "setting": "[3]; MQC (nominal as E14)", "value": 103.7, "unit": "%"}, {"measurement": "Mean accuracy (%), Table S16", "setting": "[3]; HQC (nominal as E15)", "value": 91.0, "unit": "%"}, {"measurement": "Mean accuracy (%), Table S16", "setting": "[3]; LQC (nominal as E13)", "value": 69.7, "unit": "%"}, {"measurement": "Mean accuracy (%), Table S16", "setting": "[3]; MQC (nominal as E14)", "value": 84.1, "unit": "%"}, {"measurement": "Mean accuracy (%), Table S18", "setting": "[3]; HQC (nominal as E15)", "value": 106.4, "unit": "%"}, {"measurement": "Mean accuracy (%), Table S18", "setting": "[3]; LQC (nominal as E13)", "value": 105.4, "unit": "%"}, {"measurement": "Mean accuracy (%), Table S18", "setting": "[3]; MQC (nominal as E14)", "value": 103.3, "unit": "%"}, {"measurement": "Mean accuracy (%), Table S11", "setting": "[3]; HQC (nominal as E15)", "value": 106.0, "unit": "%"}, {"measurement": "Mean accuracy (%), Table S11", "setting": "[3]; LQC (nominal as E13)", "value": 107.9, "unit": "%"}, {"measurement": "Mean accuracy (%), Table S11", "setting": "[3]; MQC (nominal as E14)", "value": 104.6, "unit": "%"}, {"measurement": "Mean accuracy (%), Table S13", "setting": "[3]; HQC (nominal as E15)", "value": 95.4, "unit": "%"}, {"measurement": "Mean accuracy (%), Table S13", "setting": "[3]; LQC (nominal as E13)", "value": 108.8, "unit": "%"}, {"measurement": "Mean accuracy (%), Table S13", "setting": "[3]; MQC (nominal as E14)", "value": 104.7, "unit": "%"}, {"measurement": "Mean accuracy (%), Table S12", "setting": "[3]; HQC (nominal as E15)", "value": 96.4, "unit": "%"}, {"measurement": "Mean accuracy (%), Table S12", "setting": "[3]; LQC (nominal as E13)", "value": 102.0, "unit": "%"}, {"measurement": "Mean accuracy (%), Table S12", "setting": "[3]; MQC (nominal as E14)", "value": 98.7, "unit": "%"}, {"measurement": "Mean accuracy (%), Table S14", "setting": "[3]; HQC (nominal as E15)", "value": 100.5, "unit": "%"}, {"measurement": "Mean accuracy (%), Table S14", "setting": "[3]; LQC (nominal as E13)", "value": 100.7, "unit": "%"}, {"measurement": "Mean accuracy (%), Table S14", "setting": "[3]; MQC (nominal as E14)", "value": 101.3, "unit": "%"}, {"measurement": "Mean total plasma concentration (range)", "setting": "[4]", "value": "20.9 to 58.3", "unit": "mg/L"}]}]}
